Data set [1] relates to UMUC3 cells. Description: Telomere Restriction Fragment (TRF) analysis in TGS1-proficient UMUC3 cells. The note with it: TGS1-proficient UMUC3 cells cultivated with Sinefungin, over 15 population doublings / 46 days. It is filed as cell-based, human. The procedure:
(B,D,F) Determination of the telomeric length by means of Telomere Restriction Fragment analysis (TRF, performed according to the methods described in Roake, C. M. et al. Mol Cell 74, 2019) in two cell types characterized by short telomeres: the UMUC3 tumour cell line and the HeLa cells lacking in TGS1 or deadenylase PARN. […] No lengthening of telomeres in the not-treated parental cells is observed (lanes 9-10). The effects of Sinefungin were tested on the tumour cell line of UMUC3 bladder, characterized by limiting levels of hTR for the activity telomerase and by short telomeres (Xu L. & Blackburn E. H. Mol Cell 28, 2007). The UMUC3 cells were treated with Sinefungin 100 μM for 10 days, and then the levels of RNA hTR were determined. […] In order to confirm that Sinefungin is capable of striking specifically the TGS1 enzyme, a treatment with Sinefungin was tested on clones of UMUC3 cells, characterized by CRISPR-induced mutations in TGS1 (Chen et al.) (FIG. 3C), inside thereof there is a lengthening of the telomeres over time due to a deficiency of TGS1 (FIG. 3D). Control cells and mutant cells were cultivated for 46 days in presence or absence of Sinefungin.

Data set [2] deals with HeLa PARN KO cells. Put plainly: Telomere Restriction Fragment (TRF) analysis in HeLa PARN KO cells. Format: cell-based, human. As to conditions: 50 μM Sinefungin, 46 days. The procedure:
(B,D,F) Determination of the telomeric length by means of Telomere Restriction Fragment analysis (TRF, performed according to the methods described in Roake, C. M. et al. Mol Cell 74, 2019) in two cell types characterized by short telomeres: the UMUC3 tumour cell line and the HeLa cells lacking in TGS1 or deadenylase PARN. (F) HeLa PARN KO cells were treated or not with 50 μM of Sinefungin for the period of time indicated in culture. Due to the reduced levels of RNA component of telomerase, the average telomeric length is shorter in the PARN KO cells (lane 13) rather than in the parental HeLa cell line. (4.5 kb vs 7.5 kb). […] The effects of Sinefungin were tested on mutant HeLa cells for PARN deadenylase (PARN KO) enzyme, one of the causative factors of congenital dyskeratosis (Tummala et al., 2015) (Roake C. M. et al. Mol cell 74, 2019). PARN KO cells, obtained in the laboratory of […] (Stanford University), are characterized by short telomeres, due to the reduced levels of RNA component of telomerase.

In data set [3] the target is T1, SET7/9 lysine methyltransferase (Mus musculus, UniProt Q8VHL1).
T1 construct: host or cells: murine model of renal fibrosis
T1 sequence (Q8VHL1 1-366): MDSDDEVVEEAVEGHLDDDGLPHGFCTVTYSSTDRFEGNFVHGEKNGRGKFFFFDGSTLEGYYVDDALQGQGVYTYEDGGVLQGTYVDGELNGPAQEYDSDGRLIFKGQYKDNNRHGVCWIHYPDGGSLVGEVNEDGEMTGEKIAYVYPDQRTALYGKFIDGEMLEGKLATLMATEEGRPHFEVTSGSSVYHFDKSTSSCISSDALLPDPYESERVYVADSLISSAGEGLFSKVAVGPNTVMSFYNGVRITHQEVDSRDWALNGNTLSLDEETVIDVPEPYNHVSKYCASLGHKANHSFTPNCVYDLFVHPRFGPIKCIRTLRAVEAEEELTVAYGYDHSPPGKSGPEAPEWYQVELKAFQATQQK
The note with it: murine model for renal fibrosis; cited from earlier work.

For data set [4] the following is noted: high doses, goats; cited from earlier work.
Data set [5] concerns HeLa PARN KO cells. Put plainly: qRT-PCR analysis of hTR levels in HeLa PARN KO cells. Format: cell-based, human. The note with it: 50 μM Sinefungin, 10 days. The procedure: (A, E) qRT-PCR analysis of levels of hTR on RNA of UMUC3 cells (A) or of the cell line HeLa PARN KO (E), treated or not with 50 μM Sinefungin for 10 days. The bars represent the variation in the levels of hTR in the treated cells and in the not treated cells, obtained by three replicates. The effects of Sinefungin were tested on mutant HeLa cells for PARN deadenylase (PARN KO) enzyme, one of the causative factors of congenital dyskeratosis (Tummala et al., 2015) (Roake C. M. et al. Mol cell 74, 2019). PARN KO cells, obtained in the laboratory of […] (Stanford University), are characterized by short telomeres, due to the reduced levels of RNA component of telomerase.

For data set [6], the target named is T2, recombinant TGS1 enzyme fused to protein GST (Homo sapiens, UniProt Q96RS0).
T2 construct: made in house; host or cells: bacterial cells
Description: In vitro hypermethylation assay with recombinant GST-TGS1 enzyme. Format: biochemical. The note with it: Sinefungin 100 μM; 50 μM [3H-CH3]AdoMet; 5 mM m7GTP. The procedure:
Sinefungin, analogous of S-adenosyl-methionine, inhibits the reaction of hypermethylation catalyzed by TGS1. (A) In vitro assay of hypermethylation performed by incubating 1 μg of recombinant GST-TGS1 or GST with 50 μM [^3H—CH3]AdoMet (SAM) and with 5 mM m^7GTP (MMG), in presence or not of 100 μM Sinefungin. Aliquots of the reaction mixture are placed on cellulose-polyethyleneimine and the reaction products are resolved by means of TLC. The incorporation of ^3H—CHs in the methylated derivatives of MMg (DMG or TMG) is quantified by means of liquid scintillation counting. (B) Control reactions performed without protein or GST. (C) The entity of transfer of ^3H-methyl to the dinucleotide cap is shown. The Sinefungin capability of inhibiting the methyl-transferase activity of TGS1 enzyme was evaluated by means of recombinant in vitro hypermethylation assay by using recombinant TGS1 enzyme fused to protein GST. After having purified TGS1-GST from bacterial cells, still immobilized on glutathione beads, or GST alone, the assay was performed in presence or absence of Sinefungin, by using [^3H—CH3]AdoMet as methyl donor and m^7GTP (MMG) as substrate.

The test system of data set [7] is UMUC3 cells. Description: qRT-PCR analysis of hTR levels in UMUC3 cells. It is filed as cell-based, human. The note with it: Sinefungin 100 μM for 10 days. The procedure: (A, E) qRT-PCR analysis of levels of hTR on RNA of UMUC3 cells (A) or of the cell line HeLa PARN KO (E), treated or not with 50 μM Sinefungin for 10 days. The bars represent the variation in the levels of hTR in the treated cells and in the not treated cells, obtained by three replicates. The effects of Sinefungin were tested on the tumour cell line of UMUC3 bladder, characterized by limiting levels of hTR for the activity telomerase and by short telomeres (Xu L. & Blackburn E. H. Mol Cell 28, 2007). The UMUC3 cells were treated with Sinefungin 100 μM for 10 days, and then the levels of RNA hTR were determined. […] In order to confirm that Sinefungin is capable of striking specifically the TGS1 enzyme, a treatment with Sinefungin was tested on clones of UMUC3 cells, characterized by CRISPR-induced mutations in TGS1 (Chen et al.) (FIG. 3C), inside thereof there is a lengthening of the telomeres over time due to a deficiency of TGS1 (FIG. 3D). Control cells and mutant cells were cultivated for 46 days in presence or absence of Sinefungin.

The target of another data set is RNA hypermethylase TGS1 (Homo sapiens, UniProt Q96RS0). As to conditions: Yedavalli & Jeang 2010; cited from earlier work.
For data set [8] the following is noted: high doses, dogs; cited from earlier work.
The next data set relates to Leishmania. The note with it: cited from earlier work.
In a further data set the test system is Toxoplasma gondii. The note with it: mice infected with Toxoplasma gondii; cited from earlier work.
The subject of data set [9] is fungal cap methyltransferase enzyme. As to conditions: Chrebet et al. 2005; cited from earlier work.

Entries after “also recorded” stand apart in the source; their conditions may differ. Like-named read-outs stand apart in the source and are kept apart here.

T2 sequence (Q96RS0 whole entry, the tested form may be a part): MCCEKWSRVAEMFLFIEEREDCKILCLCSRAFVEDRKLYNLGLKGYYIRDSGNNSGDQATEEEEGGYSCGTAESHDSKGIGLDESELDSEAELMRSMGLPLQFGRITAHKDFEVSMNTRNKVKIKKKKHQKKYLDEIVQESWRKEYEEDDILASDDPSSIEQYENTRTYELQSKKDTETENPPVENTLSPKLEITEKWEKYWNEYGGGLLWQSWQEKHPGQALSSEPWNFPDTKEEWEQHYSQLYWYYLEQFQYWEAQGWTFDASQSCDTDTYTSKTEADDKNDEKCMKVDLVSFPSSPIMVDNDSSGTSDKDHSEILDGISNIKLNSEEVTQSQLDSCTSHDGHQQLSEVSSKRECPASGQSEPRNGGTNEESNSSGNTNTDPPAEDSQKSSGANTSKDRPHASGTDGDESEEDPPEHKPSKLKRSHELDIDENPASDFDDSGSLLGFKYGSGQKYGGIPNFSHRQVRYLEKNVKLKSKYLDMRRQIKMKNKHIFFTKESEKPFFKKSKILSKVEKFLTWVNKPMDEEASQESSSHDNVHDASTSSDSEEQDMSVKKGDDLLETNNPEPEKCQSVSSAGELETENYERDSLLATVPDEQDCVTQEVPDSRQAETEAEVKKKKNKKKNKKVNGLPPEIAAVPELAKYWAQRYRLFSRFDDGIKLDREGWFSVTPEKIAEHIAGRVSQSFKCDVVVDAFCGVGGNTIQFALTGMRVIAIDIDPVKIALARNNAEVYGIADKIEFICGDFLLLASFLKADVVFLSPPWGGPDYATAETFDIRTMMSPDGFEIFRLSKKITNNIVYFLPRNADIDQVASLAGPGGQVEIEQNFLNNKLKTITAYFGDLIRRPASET
RNA hypermethylase TGS1, sequence (Q96RS0 whole entry): as the sequence (Q96RS0 whole entry, the tested form may be a part) above

Consider Sinefungin, for which the “telomere length (TRF)” value in the data set on UMUC3 cells [1] is given as “A lengthening of telomeres takes place in the treated control cells; also recorded: a lengthening of the telomeres was observed”; with HeLa PARN KO cells [2], “a lengthening of telomeres; also recorded: a substantial increase in the telomere length”. Also, in data set [3], the renal fibrosis pathology result was “an improvement in the pathology”. The nephrotoxicity result in data set [4] and in data set [8] was “nephrotoxic effects were detected” throughout. Also, the “levels of hTR” value in the data set with HeLa PARN KO cells [5] is reported as “a significative increase in the levels of hTR”. For the same substance, in [6], the “methyl-transferase activity of TGS1 (3H-methyl transfer to m7GTP, TLC / liquid scintillation)” value is “inhibit the methyl-transferase activity of TGS1”. Moreover, the “increase in the levels of hTR” value with UMUC3 cells [7] is 1.5 times. Also, the “inhibition of TGS1 in human cells” value at RNA hypermethylase TGS1 is reported as “inhibits RNA hypermethylase TGS1”. Also, the “survival of infected mice” value in the data set with Leishmania (mice infected with various isolates of Leishmania) and in the data set on Toxoplasma gondii was “increased the survival of mice” each time. The “toxic effects in infected mice” value with Leishmania (mouse, in vivo) is listed as “without showing clinically detectable toxic effects”. In addition, the “inhibition of fungal cap methyltransferase with respect to the human ortholog” value in [9] is “ten times more effectively”.

The values are drawn from patent US20230233592A1, “PHARMACEUTICAL COMPOSITION FOR THE CHEMICAL INHIBITION OF TGS1 IN THE THERAPEUTIC TREATMENT OF TELOMEROPATHIES” (priority 2020, published 2023).
